Results on four molecules are retold here after ChEMBL document CHEMBL4715876 (J Med Chem, 2020).

Converted amounts (≈) assume the structure as drawn.

Series [1] in a line: Oral bioavailability in BALB/C mouse at 10 mg/kg measured upto 24 hrs by LC-MS analysis. Type of series: ADME, organism-based. The conditions noted are these: in vivo.
Series [2] in a line: Cmax in BALB/C mouse at 10 mg/kg,po measured upto 24 hrs by LC-MS analysis. Type of series: ADME, organism-based. The arrangement: route oral, dose 10 mg/kg, time <= 24. Particulars: in vivo.
Series [3] can be described thus: Tmax in BALB/C mouse at 10 mg/kg, po measured upto 24 hrs by LC-MS analysis. Type of series: ADME, organism-based. The conditions noted are these: in vivo.
Series [4] can be described thus: Lipophilicity, log D of compound at pH 7.4. The series is classed as physicochemical. The conditions noted are these: buffer.
A short description of series [5]: Volume of distribution at steady state in BALB/C mouse at 1 mg/kg, iv measured upto 24 hrs by LC-MS analysis. The series is classed as ADME, organism-based. Particulars: in vivo, read-out: Vdss.
Series [6] can be described thus: Tmax in BALB/C mouse at 1 mg/kg, iv measured upto 24 hrs by LC-MS analysis. Type of series: ADME, organism-based. The conditions noted are these: in vivo.
A short description of series [7]: Cmax in BALB/C mouse at 1 mg/kg, iv measured upto 24 hrs by LC-MS analysis. The series is classed as ADME, organism-based. The arrangement: route intravenous, dose 1 mg/kg, time <= 24. The conditions noted are these: in vivo.
The nature of series [8]: AUClast in BALB/C mouse at 10 mg/kg,po measured upto 24 hrs by LC-MS analysis. Particulars: in vivo. Type of series: ADME, organism-based. Details: route oral, dose 10 mg/kg, time <= 24.
Series [9] can be described thus: Solubility of the compound. Type of series: physicochemical.
A short description of series [10]: AUClast in BALB/C mouse at 1 mg/kg, iv measured upto 24 hrs by LC-MS analysis. Details: route intravenous, dose 1 mg/kg, time <= 24. The conditions noted are these: in vivo. Type of series: ADME, organism-based.
Series [11] is described as follows: Free drug concentration in CB.17 SCID mouse xenografted with OCI-LY10 cells at 30 mg/kg, po once daily for 24 days. Type of series: ADME, organism-based. Particulars: in vivo, 576 h, time 24 day.
The nature of series [12]: Plasma concentration in CB.17 SCID mouse xenografted with OCI-LY10 cells at 1 mg/kg, po once daily for 24 days. Type of series: ADME, organism-based. Particulars: time 24 day.
Series [13] in a line: Drug uptake in CB.17 SCID mouse tumor xenografted with TMD-8 cells at 10 mg/kg, po once daily for 19 days. The conditions noted are these: time 19 day, read-out: Drug uptake. The series is classed as ADME, organism-based, Neoplasm.
Series [14] in a line: Plasma concentration in CB.17 SCID mouse xenografted with OCI-LY10 cells at 30 mg/kg, po once daily for 24 days. The series is classed as ADME, organism-based. Particulars: time 24 day.
Series [15] can be described thus: Drug uptake in CB.17 SCID mouse tumor xenografted with OCI-LY10 cells at 3 mg/kg, po once daily for 24 days. Particulars: time 24 day, read-out: Drug uptake. The series is classed as ADME, organism-based, Neoplasm.
Series [16] is described as follows: Plasma concentration in CB.17 SCID mouse xenografted with OCI-LY10 cells at 3 mg/kg, po once daily for 24 days. Type of series: ADME, organism-based. The conditions noted are these: time 24 day.
Series [17] is described as follows: Volume of distribution at steady state in Beagle dog at 1 mg/kg, iv measured upto 24 hrs by LC-MS/MS analysis. Type of series: ADME, organism-based, Canis lupus familiaris. Particulars: beagle, in vivo, read-out: Vdss.
Series [18] can be described thus: Drug uptake in CB.17 SCID mouse xenografted with TMD-8 cells tumor at 30 mg/kg, po once daily for 19 days. Type of series: ADME, organism-based, Neoplasm. The conditions noted are these: time 19 day, read-out: Drug uptake.
A short description of series [19]: Plasma concentration in CB.17 SCID mouse xenografted with OCI-LY10 cells at 10 mg/kg, po once daily for 24 days. Type of series: ADME, organism-based. The conditions noted are these: time 24 day.
The nature of series [20]: Plasma concentration in CB.17 SCID mouse xenografted with TMD-8 cells at 10 mg/kg, po once daily for 19 days. Type of series: ADME, organism-based. Particulars: time 19 day.
Series [21] in a line: Plasma concentration in CB.17 SCID mouse tumor xenografted with SUDHL-6 cells assessed as effect on body weight at 5 mg/kg, po once daily for 15 days. The series is classed as ADME, organism-based. Particulars: time 15 day.
Series [22] is described as follows: Drug uptake in CB.17 SCID mouse tumor xenografted with TMD-8 cells at 1 mg/kg, po once daily for 19 days. Type of series: ADME, organism-based, Neoplasm. The conditions noted are these: time 19 day, read-out: Drug uptake.
Series [23] is described as follows: Cmax in Sprague-Dawley rat at 10 mg/kg, po measured upto 24 hrs by LC-MS/MS analysis. The series is classed as ADME, organism-based. The arrangement: route oral, dose 10 mg/kg, time <=24. The conditions noted are these: in vivo.
Series [24] in a line: Drug uptake in CB.17 SCID mouse tumor xenografted with OCI-LY10 cells at 10 mg/kg, po once daily for 24 days. The series is classed as ADME, organism-based, Neoplasm. Particulars: time 24 day, read-out: Drug uptake.
The nature of series [25]: Tmax in Sprague-Dawley rat at 1 mg/kg, iv measured upto 24 hrs by LC-MS/MS analysis. Type of series: ADME, organism-based. Particulars: in vivo.
The nature of series [26]: Cmax in Sprague-Dawley rat at 1 mg/kg, iv measured upto 24 hrs by LC-MS/MS analysis. Details: route intravenous, dose 1 mg/kg, time <=24. Type of series: ADME, organism-based. Particulars: in vivo.
The nature of series [27]: AUClast in Sprague-Dawley rat at 10 mg/kg, po measured upto 24 hrs by LC-MS/MS analysis. Type of series: ADME, organism-based. The arrangement: route oral, dose 10 mg/kg, time <=24. The conditions noted are these: in vivo.
Series [28] can be described thus: Free drug concentration in CB.17 SCID mouse xenografted with TMD-8 cells at 30 mg/kg, po once daily for 19 days. The series is classed as ADME, organism-based. Particulars: in vivo, 456 h, time 19 day.
A short description of series [29]: Drug uptake in CB.17 SCID mouse tumor xenografted with OCI-LY10 cells at 30 mg/kg, po once daily for 24 days. The series is classed as ADME, organism-based, Neoplasm. The conditions noted are these: time 24 day, read-out: Drug uptake.
Series [30] in a line: Drug uptake in CB.17 SCID mouse tumor xenografted with OCI-LY10 cells at 1 mg/kg, po once daily for 24 days. The conditions noted are these: time 24 day, read-out: Drug uptake. Type of series: ADME, organism-based, Neoplasm.
A short description of series [31]: AUClast in Sprague-Dawley rat at 1 mg/kg, iv measured upto 24 hrs by LC-MS/MS analysis. The series is classed as ADME, organism-based. Details: route intravenous, dose 1 mg/kg, time <=24. Particulars: in vivo.
Series [32] can be described thus: Tmax in Sprague-Dawley rat at 10 mg/kg, po measured upto 24 hrs by LC-MS/MS analysis. The series is classed as ADME, organism-based. Particulars: in vivo.
A short description of series [33]: Plasma concentration in CB.17 SCID mouse xenografted with TMD-8 cells at 30 mg/kg, po once daily for 19 days. Type of series: ADME, organism-based. The conditions noted are these: time 19 day.
A short description of series [34]: Drug uptake in CB.17 SCID mouse tumor xenografted with SUDHL-6 cells assessed as effect on body weight at 5 mg/kg, po once daily for 15 days. Type of series: ADME, organism-based, Neoplasm. Particulars: time 15 day, read-out: Drug uptake.
Series [35] is described as follows: Drug uptake in CB.17 SCID mouse tumor xenografted with TMD-8 cells at 3 mg/kg, po once daily for 19 days. Particulars: time 19 day, read-out: Drug uptake. Type of series: ADME, organism-based, Neoplasm.
Series [36] can be described thus: Plasma concentration in CB.17 SCID mouse xenografted with TMD-8 cells at 3 mg/kg, po once daily for 19 days. Type of series: ADME, organism-based. The conditions noted are these: time 19 day.
The nature of series [37]: Volume of distribution at steady state in Sprague-Dawley rat at 1 mg/kg, iv measured upto 24 hrs by LC-MS/MS analysis. The series is classed as ADME, organism-based. Particulars: in vivo, read-out: Vdss.
A short description of series [38]: Plasma concentration in CB.17 SCID mouse xenografted with TMD-8 cells at 1 mg/kg, po once daily for 19 days. Particulars: time 19 day. Type of series: ADME, organism-based.
Series [39] is described as follows: Oral bioavailability in Sprague-Dawley rat at 10 mg/kg measured upto 24 hrs by LC-MS/MS analysis. Type of series: ADME, organism-based. The conditions noted are these: in vivo.

In the case of `C[C@H](Nc1nc(N)nc(N)c1C#N)c1cc(=O)n2cc(F)ccc2c1-c1cc(F)cc(F)c1`, the bioavailability in series [1] is 60%. Further, the results for the Cmax in series [2] and in [7] were 4700 nM and 1100 nM, respectively. Further, the figures for the Tmax in series [3] and in series [6] were 30 min and 4.8 min, respectively. The logD in series [4] is 1.88. Moreover, the Vd in series [5] came to 1.9 L/kg. In addition, the results for the AUC(0-t) at 24 h in series [8] and in [10] were 12 µM·h and 2 µM·h, respectively. For the same molecule, the concentration in solution in series [9] (solubility) was 368 µM (≈ 166 µg/mL).

With `C[C@H](Nc1nc(N)nc(N)c1C#N)c1c(-c2ccccc2)c(=O)n2cc(F)ccc2c1-c1ccc(F)cc1`, the “Drug uptake(free)” value in series [11] came to 157.6 nM; in series [28] it was 166.1 nM. Further, the concentration at 576 h in [12] was 180 nM; in [14], 5220 nM; in series [15] it was 380 nM; in series [16], 710 nM; in [19], 1720 nM; in [24], 960 nM. Further, the concentration at 576 h in [29] turned out to be 3250 nM; in series [30], 130 nM. Moreover, the concentration at 456 h in [13] came to 1650 nM; in series [18], 4080 nM; in series [20] it was 2670 nM; in series [22], 170 nM; in [33] it was 5500 nM; in series [35], 630 nM. Also, the concentration at 456 h was found to be 700 nM in series [36] and 210 nM in [38]. Further, the bioavailability in series [1] is 39%; in series [39], 33%. For the same molecule, the Cmax in series [2] came to 7500 nM; in series [23] it was 4800 nM; in [26], 1700 nM; in series [7] it was 2300 nM. The Tmax worked out at 60 min in series [3], 4.8 min in series [25], 120 min in [32] and 4.8 min in series [6]. The molecule further displayed a logD in series [4] of 2.38. The values for the Vd in [17], in series [5] and in [37] were 0.4 L/kg, 0.7 L/kg and 1 L/kg, respectively. The results for the concentration at 360 h in series [21] and in series [34] were 380 nM and 200 nM, respectively. Moreover, the AUC(0-t) at 24 h came to 36 µM·h in series [27], 11 µM·h in [31], 22 µM·h in [8] and 5.7 µM·h in series [10]. This molecule also yielded a solubility in [9] of 68.5 µM (≈ 34.9 µg/mL).

On to `Cc1c([C@H](C)Nc2nc(N)nc(N)c2C#N)c(-c2ccccc2)c(=O)n2cc(F)ccc12`, for which the bioavailability in series [1] came to 30%. Also, the Cmax in series [2] turned out to be 2100 nM; in series [7], 1300 nM. Besides, the Tmax worked out at 30 min in series [3] and 4.8 min in series [6]. The Vd in [5] was 1.7 L/kg. Besides, the AUC(0-t) at 24 h in series [8] amounted to 2.4 µM·h; in series [10], 0.8 µM·h.

On to `C[C@H](Nc1nc(N)nc(N)c1C#N)c1cc2ccc(F)cn2c(=O)c1-c1ccccc1`, for which the bioavailability in [1] amounted to 22%. The Cmax in series [2] worked out at 2600 nM; in series [7], 2300 nM. Further, the Tmax in series [3] amounted to 30 min; in [6], 4.8 min. In series [4], this molecule showed a logD of 1.26. Moreover, in series [5], the Vd turned out to be 1.3 L/kg. Besides, the AUC(0-t) at 24 h is 3.5 µM·h in [8] and 1.6 µM·h in series [10]. The same molecule came in with a solubility in series [9] of 691 µM (≈ 287 µg/mL).

One may read the bioavailability as dose-corrected exposure relative to a reference, in per cent. Low values mean poor availability, high ones good availability. The Cmax is the maximum level reached in the sampled fluid or tissue. By Tmax is commonly meant the time from dosing to the highest level. A word on the logD: it is lipophilicity at a set pH, counting ionised and neutral species. The AUC(0-t) is exposure summed from dosing to a finite time, without extrapolation to infinity. High values mean high exposure, low ones low exposure. As a reminder, the solubility is how much of the substance goes into solution per volume. The low end stands for little dissolved substance, the high end for much dissolved substance.
